According to US20110293745A1, “AURORA KINASE INHIBITORS” (SUNESIS PHARMACEUTICALS, INC., priority 2008, published 2011):

What was measured:
[1] = tested on: H1299 non-small cell lung cancer xenograft; experiment: In vivo efficacy, mouse xenograft; settings: H1299 (NSCLC)
Protocol: (§1) Percent TGI is then calculated with the following equation: […]
(§2) Time To Endpoint (TTE) was calculated for each individual animal to reach the predetermined study end point where the tumor volume becomes 1200 mm^3 or 10% of body weight or a greater than 20% body weight loss for two sequential measurements. The TTE is calculated and the median value is recorded for the group. Tumor Growth Delay (TGD) is then calculated with the following equation: […]
H1299 non-small cell lung cancer cells [200 μL of a 5×10^7 cells/mL suspension (1:1 DPBS with cells:Matrigel)] were implanted subcutaneously in the right hind flank. After 10 days, when tumors reached an average volume of approximately 100 mm^3, animals were weighed, randomized by tumor volume (l×w×h×0.52), and assigned to the various study groups before initial dosing.

PC3 = experiment: cells; settings: Homo sapiens, PC-3, 96 h, read-out: BrdU IC50
Protocol: (§3) Cellular proliferation was assessed using the Cell Proliferation ELISA, bromodeoxyuridine (BrdU) kit (Roche) including reagents, according to the kit protocol.

A375 = experiment: cells; settings: Homo sapiens, A-375, 96 h, read-out: BrdU IC50
Protocol: as §3

HCT116 = experiment: cells; settings: Homo sapiens, HCT-116, 96 h, read-out: BrdU IC50
Protocol: as §3

Calu-6 = experiment: cells; settings: Homo sapiens, Calu-6, 96 h, read-out: BrdU IC50
Protocol: as §3

H1299 = experiment: cells; settings: Homo sapiens, NCI-H1299, 96 h, read-out: BrdU IC50
Protocol: as §3

MDA-MB-231 = experiment: cells; settings: Homo sapiens, MDA-MB-231, 96 h, read-out: BrdU IC50
Protocol: as §3

A2780 = experiment: cells; settings: Homo sapiens, A2780, 96 h, read-out: BrdU IC50
Protocol: as §3

HeLa = experiment: cells; settings: Homo sapiens, 96 h, read-out: BrdU IC50
Protocol: as §3

[2] = tested on: Calu 6 lung carcinoma xenograft; experiment: In vivo efficacy, mouse xenograft; settings: CALU6 (NSCLC)
Protocol: as §1, §2
Calu 6 lung carcinoma cells [200 μL of a 5×10^7 cells/ml suspension (1:1 DPBS with cells:Matrigel)] were implanted subcutaneously in the right hind flank of mice. After 11 days, when tumors reached an average volume of approximately 150 mm^3, animals were weighed, randomized by tumor volume (l×w×h×0.52), and assigned to the various study groups before initial dosing.

pHH3 in HT-29 = experiment: cells; settings: Homo sapiens, HT-29, 1 h, read-out: pHH3 IC50
[3] = tested on: broad panel of cancer cell lines; experiment: cells; settings: Homo sapiens, 96 h, read-out: anti-proliferative IC50 values
[4] = tested on: histone H3 phosphorylation in skin biopsies; experiment: Clinical pharmacodynamics, skin punch biopsies; assay type: in vivo, human; settings: Cycle 1, Day 1, 3-7 hours after start of infusion
Protocol: Clinical pharmacodynamic assessments were performed as follows. Skin punch biopsy samples were collected prior to (e.g., just prior to or up to 14 days prior to) treatment and during Cycle 1, Day 1 of treatment at between 3 and 7 hours after the start of the 3-hour infusion. Skin punch biopsy samples were analyzed for inhibition of histone H3 phosphorylation.

Flt4 = biological target: T1, Flt4 (Homo sapiens, UniProt P35916); experiment: Radiometric kinase assay (Upstate panel); assay type: biochemical
T1 construct: purchased Upstate Biotechnology, Dundee, UK
T1 sequence (P35916 25-1363): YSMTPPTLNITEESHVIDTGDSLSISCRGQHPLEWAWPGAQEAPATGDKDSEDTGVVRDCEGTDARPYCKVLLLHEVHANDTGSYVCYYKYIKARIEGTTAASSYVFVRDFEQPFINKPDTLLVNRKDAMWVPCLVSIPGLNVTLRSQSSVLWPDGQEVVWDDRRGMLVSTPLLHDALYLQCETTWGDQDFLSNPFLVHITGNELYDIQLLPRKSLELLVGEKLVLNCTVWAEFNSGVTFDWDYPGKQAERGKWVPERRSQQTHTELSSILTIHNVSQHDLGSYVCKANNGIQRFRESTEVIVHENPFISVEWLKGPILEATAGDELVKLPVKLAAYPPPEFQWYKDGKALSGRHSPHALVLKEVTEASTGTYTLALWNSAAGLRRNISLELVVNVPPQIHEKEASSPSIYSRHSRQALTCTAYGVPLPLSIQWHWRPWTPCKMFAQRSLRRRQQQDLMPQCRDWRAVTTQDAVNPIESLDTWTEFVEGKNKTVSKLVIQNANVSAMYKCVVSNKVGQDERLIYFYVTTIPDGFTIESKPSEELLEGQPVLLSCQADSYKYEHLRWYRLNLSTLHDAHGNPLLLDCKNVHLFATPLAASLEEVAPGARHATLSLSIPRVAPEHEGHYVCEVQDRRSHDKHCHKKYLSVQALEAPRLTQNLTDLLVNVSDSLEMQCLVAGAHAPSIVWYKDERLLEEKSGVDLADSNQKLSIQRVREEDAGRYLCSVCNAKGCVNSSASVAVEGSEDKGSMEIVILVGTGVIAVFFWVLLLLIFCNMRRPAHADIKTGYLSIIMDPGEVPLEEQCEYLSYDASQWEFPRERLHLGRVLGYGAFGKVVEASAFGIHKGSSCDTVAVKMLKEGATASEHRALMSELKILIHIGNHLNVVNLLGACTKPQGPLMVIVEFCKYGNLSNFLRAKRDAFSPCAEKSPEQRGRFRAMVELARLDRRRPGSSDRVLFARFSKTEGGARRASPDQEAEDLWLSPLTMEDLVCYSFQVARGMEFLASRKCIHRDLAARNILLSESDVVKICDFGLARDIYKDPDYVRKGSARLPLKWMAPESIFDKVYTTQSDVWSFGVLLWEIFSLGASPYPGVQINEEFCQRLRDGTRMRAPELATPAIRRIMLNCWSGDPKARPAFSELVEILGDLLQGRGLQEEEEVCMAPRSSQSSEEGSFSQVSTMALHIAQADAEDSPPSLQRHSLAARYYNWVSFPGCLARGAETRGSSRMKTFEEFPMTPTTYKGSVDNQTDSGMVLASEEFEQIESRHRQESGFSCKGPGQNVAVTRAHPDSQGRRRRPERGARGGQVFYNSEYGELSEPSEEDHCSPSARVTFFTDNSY

[5] = tested on: histone H3 phosphorylation in epidermis; experiment: pHH3 immunohistochemistry in mouse skin punches; assay type: in vivo
Protocol: For each study, animals were randomized by tumor volume and distributed into groups of ten animals each. […] Inhibition of histone H3 (HH3) phosphorylation was evaluated in HCT 116 xenograft tumors, mouse femur bone marrow, and mouse skin punch biopsy sections by immunohistochemistry (IHC). […] The tumors were collected 6 hrs post-dose on day 4, 11, 18 and on day 25 (one week after completion of dosing phase of the experiment). Phosphorylated histone H3 (pHH3) was detected by immunohistochemistry staining of tissue sections with the antibody # 9701 (Cell Signaling Technology, Inc.), which recognizes phosphorylation of Ser10 residue in histone H3 protein. […] Three mice in each group were sacrificed on day 4 and day 18, 6 hours post-dose. Skin punches (8 mm) were fixed in formalin, trimmed, and sections stained to identify cells positive for histone H3 phosphorylation.

[6] = Clinical pharmacokinetic evaluation, 3-hour infusion; assay type: in vivo, human
Protocol: Pharmacokinetic (PK) evaluation was performed on Days 1 and 15.

[7] = Pharmacokinetics, single bolus intravenous injection; assay type: in vivo, CD-1 mice; settings: CD-1, mouse, plasma, 5 mg/kg
Description: Pharmacokinetic parameters were estimated using noncompartmental analysis within WinNonlin v. 4.1. Quantification of Compound 2 was done by HPLC-MS/MS after extraction from plasma with acetonitrile. […] For rising dose experiments measuring exposure for each species, sets containing several animals were singly dosed at a given dose. Results from single-dose experiments are shown in FIG. 10A, Table 43, and in FIG. 10B and Table 44, respectively. […] C0 is initial concentration extrapolated to time zero. AUCINF is area under the plasma-concentration time curve from time zero extrapolated to the infinite time. CL is clearance; Vss is steady state volume of distribution. T1/2 is half-life.

CS(=O)(=O)O.O=C(Nc1cccc(Cl)c1)Nc1ncc(CCNc2ncnc3ccsc23)s1 [Compound 1, 1-(3-chlorophenyl)-3-{5-[2-(thieno[3,2-d]pyrimidin-4-ylamino)ethyl]thiazo}-urea]
% TGI ([1]; 42.5 mg/kg biw × 3): 0%
TGD ([1]; 42.5 mg/kg biw × 3): 0 days
% TGI ([1]; 85 mg/kg biw × 3): 17.7%
TGD ([1]; 85 mg/kg biw × 3): 0 days
% TGI ([1]; 170 mg/kg biw × 3): 69.1%
TGD ([1]; 170 mg/kg biw × 3): 5.7 days
IC50 (PC3): 4.4 nM
IC50 (A375): 5.9 nM
IC50 (HCT116): 6.4 nM
IC50 (Calu-6): 13.3 nM
IC50 (H1299): 4 nM
IC50 (MDA-MB-231): 8.1 nM
IC50 (A2780): 1.8 nM
IC50 (HeLa): 9.3 nM
% TGI ([2]; 42.5 mg/kg biw × 3): 23.5%
% TGI ([2]; 85 mg/kg biw × 3): 28.7%
% TGI ([2]; 170 mg/kg biw × 3): 91.4%
IC50 (pHH3 in HT-29): 60 nM
IC50 [3]: 2 to 10 nM
doses at which inhibition of pHH3 was observed in skin biopsies of patients [4]: ≥ 240 mg/m^2
IC50 (Flt4): 0.014 µM
reduction of number of phospho-histone H3 positively stained cells in epidermis versus vehicle ([5]; 150 mg/kg biweekly for 3 weeks, day 4 and day 18, 6 hours post-dose): ~50%
number of positively stained cells in epidermis versus vehicle ([5]; day 25): still decreased

O=C(Nc1cccc(Cl)c1)Nc1ncc(CCNc2ncnc3ccsc23)s1 [Compound 2, 1-(3-chlorophenyl)-3-{5-[2-(thieno[3,2-d]pyrimidin-4-ylamino)ethyl]thiazol-2-yl}-urea]
disposition following repeated administration ([6]; first versus third weekly dose): no change in Compound 2 disposition
half-life ([6]; human, plasma, intravenous, patients, weekly 3-hour infusion, Days 1 and 15, read-out: terminal half-life (converted)): 420 min
clearance ([6]; patients): moderate to low
AUC(0-inf) [7]: 1800 ng·h/mL
C0 [7]: 7100 ng/mL
clearance [7]: 47.6 mL/min/kg
half-life [7]: 84 min
Vd ([7]; read-out: Vss): 1 L/kg
